How the values were obtained:
[1] = Binding affinity against alpha2-delta subunit of rat calcium channel
Rattus norvegicus = organism: Rattus norvegicus; test: Percent inhibition of binding to alpha2-delta subunit of rat calcium channel at 10 uM

| SMILES | IC50 [1] | inhibition (Rattus norvegicus) |
| --- | --- | --- |
| C[C@H]1CC[C@](CN)(CC(=O)O)CC1 | – | 17% |
| C[C@@H]1C[C@H](C)C[C@@](CN)(CC(=O)O)C1 | 143 nM | – |
| C[C@@H]1C[C@H](C)C[C@](CN)(CC(=O)O)C1 | – | 38% |
| C[C@H]1CC[C@@](CN)(CC(=O)O)CC1 | 420 nM | – |

Reference: ChEMBL document CHEMBL1130541, “Investigation into the preferred conformation of gabapentin for interaction with its binding site on the 2 subunit of a calcium channel” (Bioorg Med Chem Lett, 1997)
